# Where two headings read alike, the source gives them in different places.
# Legend:
# [1] = ester bond, EDCI/HOBt/DIPEA, 16.0 h
# [2] = from CCn1c(-c2cc(N3CCN(C(=O)OCc4ccccc4)CC3)cnc2[C@H](C)OC)c(CC(C)(C)CO)c2cc(-c3csc(C[C@H](NC(=O)OC(C)(C)C)C(=O)N4CCC[C@@H](C(=O)O)N4)n3)ccc21; ester bond; 18-membered ring; EDCI/HOBt/DIEA; MeCN; 10.3 mM; 25.0 °C
compound,measurement,setting,value
CC(C)[Si](Oc1cc2cc(c1)-c1ccc3[nH]c(I)c(c3c1)CC(C)(C)COC(=O)[C@@H]1CCCN(N1)C(=O)[C@@H](NC(=O)OC(C)(C)C)C2)(C(C)C)C(C)C,"ring closure, yield of all isomers","[1]; from CC(C)[Si](Oc1cc(C[C@H](NC(=O)OC(C)(C)C)C(=O)N2CCC[C@@H](C(=O)O)N2)cc(-c2ccc3[nH]c(I)c(CC(C)(C)CO)c3c2)c1)(C(C)C)C(C)C, DCM, 22.8 mM, 25.0 °C",50%
CC1(C)COC(=O)[C@@H]2CCCN(N2)C(=O)[C@@H](NC(=O)OC(C)(C)C)Cc2cccc(c2)-c2ccc3[nH]c(I)c(c3c2)C1,"ring closure, yield of all isomers","[1]; from CC(C)(CO)Cc1c(I)[nH]c2ccc(-c3cccc(C[C@H](NC(=O)OC(C)(C)C)C(=O)N4CCC[C@@H](C(=O)O)N4)c3)cc12, DCM, 12.8 mM, 0.0 °C",79.8%
CCn1c(-c2cc(N3CCN(C(=O)OCc4ccccc4)CC3)cnc2[C@H](C)OC)c2c3cc(ccc31)-c1csc(n1)C[C@H](NC(=O)OC(C)(C)C)C(=O)N1CCC[C@H](N1)C(=O)OCC(C)(C)C2,"ring closure, isolated yield",[2],54.9%
same,"ring closure, yield of all isomers","[1]; from CCn1c(-c2cc(N3CCN(C(=O)OCc4ccccc4)CC3)cnc2[C@H](C)OC)c(CC(C)(C)CO)c2cc(-c3csc(C[C@H](NC(=O)OC(C)(C)C)C(=O)N4CCC[C@@H](C(=O)O)N4)n3)ccc21, MeCN, 10.34 mM, 25.0 °C",54.9%
CCn1c(-c2cccnc2[C@H](C)OC)c2c3cc(ccc31)-c1csc(n1)C[C@H](NC(=O)OC(C)(C)C)C(=O)N1CCC[C@H](N1)C(=O)OCC(C)(C)C2,"ring closure, yield of all isomers","[1]; from CCn1c(-c2cccnc2[C@H](C)OC)c(CC(C)(C)CO)c2cc(-c3csc(C[C@H](NC(=O)OC(C)(C)C)C(=O)N4CCC[C@@H](C(=O)O)N4)n3)ccc21, DCM, 12.65 mM, 25.0 °C",81.1%

# — US11739074B2, “Ras inhibitors” (Revolution Medicines, Inc., priority 2019, dated 2023)
